Measurements reported in patent US10881110B2, “Herbicidal compositions comprising isoxazolo[5,4-b]pyridines” (BASF SE, priority 2014, dated 2021).

What was measured:
Test in all cases: greenhouse post-emergence herbicidal test
VIOAR = assay type: in vivo, Viola arvensis; parameters: key to herbicidal activity against VIOAR found / herbicidal activity against VIOLA found: rating on a scale from 0 to 100; details: post emergence
Summary of the method: (§1)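 Herbicidal activity scored on a 0 (no damage) to 100 (plants destroyed) scale, usually 20 days after water-based spraying of 1–15 cm plants grown in loamy sand at 10-25 °C or 20-35 °C depending on species. Components were applied from 10% emulsion concentrates; Colby's E=X+Y−(X·Y/100) gives the additive expectation.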

GERDI = assay type: in vivo, Geranium dissectum; parameters: key to herbicidal activity against GERDI found: rating on a scale from 0 to 100; details: post emergence
Summary of the method: (§2)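 Each species was sown separately, grown to a height of 1 to 15 cm and then sprayed with water-dispersed components A, B and where relevant C. Growth conditions were 10-25° C or 20-35° C, and percent damage was recorded at 20 days.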

ERICA = assay type: in vivo, Conyza canadensis; parameters: key to herbicidal activity against ERICA found: rating on a scale from 0 to 100; details: post emergence
Summary of the method: as §2

ABUTH = assay type: in vivo, Abutilon theophrast; parameters: key to herbicidal activity against ABUTH found: rating on a scale from 0 to 100; details: post emergence
Summary of the method: as §2

IPOHE = assay type: in vivo, Ipomoea hederacea; parameters: key to herbicidal activity against IPOHE found: rating on a scale from 0 to 100; details: post emergence
Summary of the method: as §1

STEME = assay type: in vivo, Stellaria media; parameters: key: scale 0 to 100
Description: (§3) The culture containers used were plastic pots containing medium loamy sand with approximately 4.6% of humus and 69.9% sand as substrate. The seeds of the test plants were sown separately for each species.
(§4) For the post-emergence treatment, the test plants were grown to a plant height of from 1 to 15 cm, depending on the plant habit, and only then treated with the active compounds which had been suspended or emulsified in water. To this end, the test plants were either sown directly, and grown in the same containers, or they were first grown separately as seedlings and transplanted into the test containers a few days prior to treatment.
(§5) Depending on the species, the plants were kept at 10-25° C. and 20-35° C., respectively.
(§6) The test period extended over 1 to 3 weeks. During this time, the plants were tended and their response to the individual treatments was evaluated 20 days after treatment except mentioned otherwise.
(§7) Evaluation was carried out using a scale from 0 to 100. 100 means no emergence of the plants, or complete destruction of at least the above-ground parts, and 0 means no damage or normal course of growth.
(§8) The respective stated components A and B, and, if appropriate, C, were formulated as a 10% by weight strength emulsion concentrate and, with addition of the amount of solvent system, introduced into the spray liquor used for applying the active compound. In the examples, the solvent used was water.
(§9) In the examples below, using the method of S. R. Colby (1967) “Calculating synergistic and antagonistic responses of herbicide combinations”, Weeds 15, p. 22 ff., the value E, which is expected if the activity of the individual active compounds is only additive, was calculated. E=X+Y−(X·Y/100)

ALOMY = assay type: in vivo, Alopecurus myosuroides; parameters: key to herbicidal activity against ALOMY found: rating on a scale from 0 to 100; details: post emergence
Summary of the method: as §2

POLCO = assay type: in vivo, Polygonum convolvulus; parameters: key to herbicidal activity against POLCO found: rating on a scale from 0 to 100; details: post emergence
Summary of the method: as §1

PAPRH = assay type: in vivo, Papaver rhoeas; parameters: key: rating on a scale from 0 to 100; details: B.103 15 g/ha a.i.
Summary of the method: as §2

KCHSC = assay type: in vivo, Kochia scoparia; parameters: key to herbicidal activity against KCHSC found: rating on a scale from 0 to 100; details: post emergence
Summary of the method: as §1

ECHCG = assay type: in vivo, Echinochloa crus-galli; parameters: key to herbicidal activity against ECHCG found / herbicidal activity against ECHCH found: scale 0 to 100; details: post emergence; I.1 31.25 g/ha, B.103 7.5 g/ha a.i.
Description: as §3, §4, §5, §6, §7, §8, §9

GALAP = assay type: in vivo, Galium aparine; parameters: key to herbicidal activity against GALAP found: rating on a scale from 0 to 100; details: post emergence
Summary of the method: as §1

APESV = assay type: in vivo, Apera spica-venti; parameters: key to herbicidal activity against APESV found: rating on a scale from 0 to 100; details: single active, post emergence
Summary of the method: as §2

AMBEL = assay type: in vivo, Ambrosia artemisiifolia; parameters: key: rating on a scale from 0 to 100
Description: as §3, §4, §5, §6, §7, §8, §9

MATCH = assay type: in vivo, Matricaria recutita; parameters: key to herbicidal activity against MATCH found: rating on a scale from 0 to 100; details: post emergence
Summary of the method: as §2

[1] = I.1 62.5 g/ha, B.89 12.5 g/ha a.i.
[2] = I.1 15.62 g/ha, B.89 25 g/ha a.i.
[3] = I.1 62.5 g/ha, B.89 25 g/ha a.i.
[4] = I.1 31.25 g/ha, B.89 25 g/ha a.i.
[5] = I.1 31.25 g/ha, B.103 7.5 g/ha a.i.
[6] = I.1 31.25 g/ha, B.103 15 g/ha a.i.
[7] = I.1 62.5 g/ha, B.103 7.5 g/ha a.i.
[8] = I.1 62.5 g/ha, B.103 15 g/ha a.i.
[9] = I.1 15.6 g/ha, B.103 7.5 g/ha a.i.
[10] = application rate a.i.: I.1 62.5 g/ha, B.100 (isoxaflutole) 12.5 g/ha, alone or as mixture (composition 1.100)
[11] = application rate a.i.: I.1 31.25 g/ha, B.100 (isoxaflutole) 12.5 g/ha, alone or as mixture (composition 1.100)

## CS(=O)(=O)NC(=O)c1cc(Oc2ccc(C(F)(F)F)cc2Cl)ccc1[N+](=O)[O-] [B.89, fomesafen]
VIOAR; [1]
  herbicidal activity against VIOAR found: 55
GERDI; [2]
  herbicidal activity against GERDI found: 25
GERDI; [1]
  herbicidal activity against GERDI found: 25
GERDI; [3]
  herbicidal activity against GERDI found: 25
ERICA; [3]
  herbicidal activity against ERICA found: 20
ABUTH; [4]
  herbicidal activity against ABUTH found: 90
IPOHE; [2]
  herbicidal activity against IPOHE found: 85
IPOHE; [4]
  herbicidal activity against IPOHE found: 85
IPOHE; [1]
  herbicidal activity against IPOHE found: 85
IPOHE; [3]
  herbicidal activity against IPOHE found: 85
STEME; [2]
  herbicidal activity against STEME found: 0
STEME; I.1 31.25 g/ha, B.89 12.5 g/ha a.i.
  herbicidal activity against STEME found: 0
STEME; [4]
  herbicidal activity against STEME found: 0
ALOMY; [1]
  herbicidal activity against ALOMY found: 25
POLCO; I.1 15.62 g/ha, B.89 12.5 g/ha a.i.
  herbicidal activity against POLCO found: 95

## O=C(Nc1ccc(F)cc1)c1cccc(Oc2cccc(C(F)(F)F)c2)n1 [B.103, picolinafen]
PAPRH; I.1 15.62 g/ha
  herbicidal activity against PAPRH found: 70
PAPRH; I.1 31.25 g/ha
  herbicidal activity against PAPRH found: 70
KCHSC; [5]
  herbicidal activity against KCHSC found: 60
KCHSC; [6]
  herbicidal activity against KCHSC found: 60
KCHSC; [7]
  herbicidal activity against KCHSC found: 60
KCHSC; [8]
  herbicidal activity against KCHSC found: 60
GERDI; [9]
  herbicidal activity against GERDI found: 0
GERDI; [5]
  herbicidal activity against GERDI found: 0
GERDI; [6]
  herbicidal activity against GERDI found: 0
GERDI; [7]
  herbicidal activity against GERDI found: 0
GERDI; [8]
  herbicidal activity against GERDI found: 0
ERICA; [6]
  herbicidal activity against ERICA found: 65
ERICA; [7]
  herbicidal activity against ERICA found: 25
ERICA; [8]
  herbicidal activity against ERICA found: 65
IPOHE; [9]
  herbicidal activity against IPOHE found: 40
IPOHE; [6]
  herbicidal activity against IPOHE found: 60
STEME; I.1 15.62 g/ha, B.103 15 g/ha a.i.
  herbicidal activity against STEME found: 65
ECHCG
  herbicidal activity against ECHCG found: 20
GALAP; [7]
  herbicidal activity against GALAP found: 70
POLCO; [9]
  herbicidal activity against POLCO found: 40
POLCO; [7]
  herbicidal activity against POLCO found: 40
POLCO; [8]
  herbicidal activity against POLCO found: 70

## Nc1cc(Cl)nc(C(=O)O)c1Cl [B.144, aminopyralid]
VIOAR; single active, 4 g/ha a.i.
  herbicidal activity against VIOLA found: 0
KCHSC; single active, 4 g/ha a.i.
  herbicidal activity against KCHSC found: 0
KCHSC; single active, 8 g/ha a.i.
  herbicidal activity against KCHSC found: 0
ABUTH; single active, 4 g/ha a.i.
  herbicidal activity against ABUTH found: 0
APESV; 4 g/ha a.i.
  herbicidal activity against APESV found: 0
AMBEL; single active, 8 g/ha a.i.
  herbicidal activity against AMBEL found: 75
POLCO; single active, 4 g/ha a.i.
  herbicidal activity against POLCO found: 98
POLCO; single active, 8 g/ha a.i.
  herbicidal activity against POLCO found: 98

## CCc1cccc(C)c1N(C(=O)CCl)[C@@H](C)COC [B.134, S-metolachlor]
VIOAR; applied alone at 250 g/ha a.i.
  herbicidal activity against VIOAR found: 0
VIOAR; applied alone at 500 g/ha a.i.
  herbicidal activity against VIOAR found: 0
KCHSC; applied alone at 500 g/ha a.i.
  herbicidal activity against KCHSC found: 30
GERDI; applied alone at 500 g/ha a.i.
  herbicidal activity against GERDI found: 30
ERICA; applied alone at 250 g/ha a.i.
  herbicidal activity against ERICA found: 25
ERICA; applied alone at 500 g/ha a.i.
  herbicidal activity against ERICA found: 35
ABUTH; applied alone at 250 g/ha a.i.
  herbicidal activity against ABUTH found: 40
AMBEL; applied alone at 250 g/ha a.i.
  herbicidal activity against AMBEL found: 25
AMBEL; applied alone at 500 g/ha a.i.
  herbicidal activity against AMBEL found: 65
ALOMY; applied alone at 250 g/ha a.i.
  herbicidal activity against ALOMY found: 0
ALOMY; applied alone at 500 g/ha a.i.
  herbicidal activity against ALOMY found: 20
GALAP; applied alone at 250 g/ha a.i.
  herbicidal activity against GALAP found: 45
POLCO; applied alone at 250 g/ha a.i.
  herbicidal activity against POLCO found: 35
POLCO; applied alone at 500 g/ha a.i.
  herbicidal activity against POLCO found: 60

## C#CCOC(=O)[C@@H](C)Oc1ccc(Oc2ncc(Cl)cc2F)cc1 [B.2, clodinafop-propargyl]
GERDI; Geranium dissectum, post-emergence, 480 h, 7.5 g/ha a.i., read-out: herbicidal activity against GERDI found
  pest or weed control at 7.5 g/ha: 0%
ABUTH; Abutilon theophrasti, post-emergence, 480 h, 15 g/ha a.i., read-out: herbicidal activity against ABUTH found
  pest or weed control at 15 g/ha: 15%
IPOHE; Ipomoea hederacea, post-emergence, 480 h, 7.5 g/ha a.i., read-out: herbicidal activity against IPOHE found
  pest or weed control at 7.5 g/ha: 10%
IPOHE; Ipomoea hederacea, post-emergence, 480 h, 15 g/ha a.i., read-out: herbicidal activity against IPOHE found
  pest or weed control at 15 g/ha: 40%
MATCH; Matricaria chamomilla, post-emergence, 480 h, 15 g/ha a.i., read-out: herbicidal activity against MATCH found
  pest or weed control at 15 g/ha: 0%
STEME; 7.5 g/ha a.i.
  herbicidal activity against STEME found: 0
ALOMY; Alopecurus myosuroides, post-emergence, 480 h, 15 g/ha a.i., read-out: herbicidal activity against ALOMY found
  pest or weed control at 15 g/ha: 85%
GALAP; Galium aparine, post-emergence, 480 h, 7.5 g/ha a.i., read-out: herbicidal activity against GALAP found
  pest or weed control at 7.5 g/ha: 0%

## Cc1ccc2c(c1)[C@H](Nc1nc(N)nc(C(C)F)n1)[C@@H](C)C2 (some centres unmarked) [B.178, indaziflam]
KCHSC; single active, 3 g/ha a.i.
  herbicidal activity against KCHSC found: 15
GERDI; single active, 3 g/ha a.i.
  herbicidal activity against GERDI found: 55
GERDI; single active, 6 g/ha a.i.
  herbicidal activity against GERDI found: 55
ERICA; single active, 3 g/ha a.i.
  herbicidal activity against ERICA found: 15
ERICA; single active, 6 g/ha a.i.
  herbicidal activity against ERICA found: 60
ABUTH; single active, 6 g/ha a.i.
  herbicidal activity against ABUTH found: 60
MATCH; single active, 3 g/ha a.i.
  herbicidal activity against MATCH found: 35
APESV; 3 g/ha a.i.
  herbicidal activity against APESV found: 40
AMBEL; single active, 6 g/ha a.i.
  herbicidal activity against AMBEL found: 70
GALAP; single active, 3 g/ha a.i.
  herbicidal activity against GALAP found: 65
GALAP; single active, 6 g/ha a.i.
  herbicidal activity against GALAP found: 60

## CS(=O)(=O)c1cc(C(F)(F)F)ccc1C(=O)c1cnoc1C1CC1 [B.100, isoxaflutole]
VIOAR; [10]
  herbicidal activity against VIOAR found: 70
GERDI; [11]
  herbicidal activity against GERDI found: 0
GERDI; [10]
  herbicidal activity against GERDI found: 0
ERICA; [11]
  herbicidal activity against ERICA found: 80
ERICA; [10]
  herbicidal activity against ERICA found: 80
AMBEL; [11]
  herbicidal activity against AMBEL found: 45
AMBEL; [10]
  herbicidal activity against AMBEL found: 45
POLCO; [11]
  herbicidal activity against POLCO found: 60
